The target of data set [1] is Metallo-beta-lactamase type 2 (Bacteria) (UniProt C7C422). Description: Inhibition of NDM-1 (unknown origin) at 10 uM relative to control.
Data set [2] has as its system Bacteria. Description: Inhibition of AIM-1 (unknown origin) at 10 uM relative to control.
Data set [3] concerns the target Metallo-beta-lactamase type 2 (Bacteria) (UniProt C7C422). Description: Competitive inhibition of NDM-1 (unknown origin) using penicillin G as substrate by Michaelis-Menten equation based kinetic analysis.
The test system of data set [4] is Escherichia coli. Description: Antagonistic antibacterial activity against Escherichia coli expressing NDM-1 in presence of meropenem by checkerboard sensitivity assay. Type of data set: functional, organism-based.
The subject of data set [5] is Escherichia coli. As to the kind of experiment: Synergistic antibacterial activity against Escherichia coli expressing CphA in presence of penicillin G by checkerboard sensitivity assay. The class given is functional, organism-based.
In data set [6] the test system is Escherichia coli. Description: Synergistic antibacterial activity against Escherichia coli expressing CphA in presence of cefuroxime by checkerboard sensitivity assay. The class given is functional, organism-based.
The test system of data set [7] is Escherichia coli. As to the kind of experiment: Synergistic antibacterial activity against Escherichia coli expressing AIM-1 in presence of penicillin G by checkerboard sensitivity assay. The class given is functional, organism-based.
Data set [8] has as its system Escherichia coli. Description: Synergistic antibacterial activity against Escherichia coli expressing CphA in presence of meropenem by checkerboard sensitivity assay. The class given is functional, organism-based.
The test system of data set [9] is Bacteria. As to the kind of experiment: Uncompetitive inhibition of AIM-1 (unknown origin) using cefuroxime as substrate by Michaelis-Menten equation based kinetic analysis.
Data set [10] concerns Escherichia coli. Description: Synergistic antibacterial activity against Escherichia coli expressing NDM-1 in presence of cefuroxime by checkerboard sensitivity assay. Type of data set: functional, organism-based.
Data set [11] concerns Escherichia coli. Description: Antagonistic antibacterial activity against Escherichia coli expressing AIM-1 in presence of meropenem by checkerboard sensitivity assay. Type of data set: functional, organism-based.
For data set [12], the system named is Bacteria. As to the kind of experiment: Competitive inhibition of AIM-1 (unknown origin) using cefuroxime as substrate by Michaelis-Menten equation based kinetic analysis.
For data set [13], the system named is Escherichia coli. Description: Synergistic antibacterial activity against Escherichia coli expressing NDM-1 in presence of penicillin G by checkerboard sensitivity assay. The class given is functional, organism-based.
Data set [14] has as its system Escherichia coli. Description: Antagonistic antibacterial activity against Escherichia coli expressing AIM-1 in presence of cefuroxime by checkerboard sensitivity assay. Type of data set: functional, organism-based.
Data set [15] deals with Metallo-beta-lactamase type 2 (Bacteria) (UniProt C7C422). As to the kind of experiment: Uncompetitive inhibition of NDM-1 (unknown origin) using penicillin G as substrate by Michaelis-Menten equation based kinetic analysis.
A short description of data set [16]: Stability of the compound in NaBH4/ethanol assessed as oxidation measured after 24 hrs at room temperature. Type of data set: physicochemical.
In data set [17] the test system is Escherichia coli. As to the kind of experiment: Antagonistic antibacterial activity against Escherichia coli expressing AIM-1 in presence of penicillin G by checkerboard sensitivity assay. The class given is functional, organism-based.
The nature of data set [18]: Inhibition of CphA (unknown origin) using meropenem as substrate. Further details: species or system Bacteria.
For data set [19], the system named is Escherichia coli. Description: Synergistic antibacterial activity against Escherichia coli expressing AIM-1 in presence of meropenem by checkerboard sensitivity assay. The class given is functional, organism-based.
The test system of data set [20] is Escherichia coli. As to the kind of experiment: Synergistic antibacterial activity against Escherichia coli expressing AIM-1 in presence of cefuroxime by checkerboard sensitivity assay. Type of data set: functional, organism-based.

Calls of active or inactive are those of the source. The rule behind the calls is not given here.

What is called inhibition is the relative decrease from the control value, in per cent. The term IC50 denotes the point on the concentration scale where inhibition reaches its midpoint.

Metallo-beta-lactamase type 2 (Bacteria), sequence (C7C422 whole entry): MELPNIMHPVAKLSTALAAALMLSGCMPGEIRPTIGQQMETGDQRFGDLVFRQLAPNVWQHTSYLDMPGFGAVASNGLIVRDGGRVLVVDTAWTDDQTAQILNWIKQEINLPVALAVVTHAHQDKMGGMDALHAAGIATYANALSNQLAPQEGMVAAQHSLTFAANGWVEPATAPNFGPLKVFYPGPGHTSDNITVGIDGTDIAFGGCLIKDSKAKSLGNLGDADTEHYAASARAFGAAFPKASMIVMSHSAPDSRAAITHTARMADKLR

On to `N#Cc1c(-c2ccccc2)c(-c2ccccc2)n(Cc2ccccc2)c1NCc1cccs1`, for which the inhibition in data set [1] stood at 29%; with Bacteria [2], 25%.
Taken in the same sequence, the figures for `COC(=O)c1ccc(-c2c(C#N)c(N)n(Cc3ccccc3)c2-c2ccc(C(=O)OC)cc2)cc1` were “inactive” and “inactive”.
With `N#Cc1c(-c2ccccc2)c(-c2ccccc2)n(Cc2ccccc2)c1NC(=O)c1ccccc1`, the figures for the Kic (in [3]; in the data set on Bacteria [12]) were 9 µM and 11 µM, respectively. The outcome with Escherichia coli [4], in the data set with Escherichia coli [5], with Escherichia coli [6], in the data set on Escherichia coli [7], in the data set with Escherichia coli [8] and with Escherichia coli [10] was Active. Besides, the outcome with Escherichia coli [11], with Escherichia coli [13] and with Escherichia coli [14] was Active. Moreover, the inhibition was found to be 47% in [1] and 42% with Bacteria [2]. Also, the Kiuc in the data set with Bacteria [9] was 19 µM; in data set [15] it was 5 µM.
For the compound `N#Cc1c(-c2ccccn2)c(-c2ccccn2)n(Cc2ccccc2)c1N`, the inhibition result (in data set [1]; in the data set with Bacteria [2]) was “inactive” throughout.
Take `N#Cc1c(-c2ccccc2)c(-c2ccccc2)n(Cc2ccccc2)c1NCc1ccccc1`: the inhibition in data set [1] is 41%; in the data set on Bacteria [2], 32%. In [16], the Stability result is on record as “Stable”. The Kiuc in data set [15] was 2.7 µM.
In the case of `COC(=O)c1ccc(/C=N/c2c(C#N)c(-c3ccccc3)c(-c3ccccc3)n2Cc2ccccc2)cc1`, the Kic amounted to 34 µM in data set [3] and 6.4 µM in the data set on Bacteria [12]. Moreover, the inhibition in data set [1] worked out at 27%; in the data set on Bacteria [2], 19%. In addition, the Kiuc with Bacteria [9] came to 72 µM; in [15] it was 4.4 µM.
As to `N#Cc1c(-c2ccccc2)c(-c2ccccc2)n(Cc2ccccc2)c1/N=C/c1ccc(C(=O)O)cc1`, the inhibition in [1] is 40%; in the data set on Bacteria [2], 39%.
Taken in the same sequence, the figures for `N#Cc1c(-c2ccc(C(=O)O)cc2)c(-c2ccc(C(=O)O)cc2)n(Cc2ccccc2)c1N` were “inactive” and “inactive”.
For the compound `N#Cc1c(-c2ccccc2)c(-c2ccccc2)n(Cc2ccccc2)c1/N=C/c1cccnc1`, the inhibition in data set [1] is 28%; in the data set on Bacteria [2] it was 11%.
In the case of `N#Cc1c(-c2ccccc2)c(-c2ccccc2)n(Cc2ccccc2)c1/N=C/c1cccs1`, the Kic in data set [3] worked out at 1.7 µM; with Bacteria [12], 4.5 µM. For the same compound, the result in the data set with Escherichia coli [4], in the data set with Escherichia coli [5], in the data set with Escherichia coli [6], with Escherichia coli [8], in the data set on Escherichia coli [17] and in the data set with Escherichia coli [10] was Active. Also, the result in the data set with Escherichia coli [11], in the data set with Escherichia coli [13] and in the data set on Escherichia coli [14] was Active. Also, the inhibition in [1] turned out to be 57%; with Bacteria [2] it was 42%. The Kiuc with Bacteria [9] is 35 µM; in [15], 11 µM. Moreover, in [18], the IC50 came out at 57 µM.
As for `N#Cc1c(-c2ccccc2)c(-c2ccccc2)n(Cc2ccccc2)c1/N=C/c1ccc(O)cc1`, the Kic in data set [3] is 1.3 µM; in the data set on Bacteria [12] it was 4.4 µM. The result in the data set with Escherichia coli [4], with Escherichia coli [5], with Escherichia coli [6], in the data set on Escherichia coli [8], with Escherichia coli [17] and in the data set with Escherichia coli [10] was Active. Also, the outcome with Escherichia coli [19], in the data set with Escherichia coli [20] and with Escherichia coli [13] was Active. In addition, the inhibition in [1] was 49%; in the data set on Bacteria [2], 61%. Besides, the Kiuc with Bacteria [9] amounted to 4.7 µM; in data set [15], 0.9 µM. Further, in data set [18], the IC50 was 45 µM.
As to `N#Cc1c(-c2ccccc2)c(-c2ccccc2)n(Cc2ccccc2)c1/N=C/c1ccccc1`, the results for the Kic (in [3]; with Bacteria [12]) were 3.2 µM and 3.6 µM, respectively. Further, the outcome in the data set with Escherichia coli [4], with Escherichia coli [5], in the data set on Escherichia coli [6], in the data set on Escherichia coli [8], with Escherichia coli [17] and with Escherichia coli [10] was Active. Also, the outcome in the data set on Escherichia coli [19], in the data set on Escherichia coli [20] and in the data set on Escherichia coli [13] was Active. For the same compound, the inhibition in data set [1] worked out at 38%; in the data set on Bacteria [2], 42%. Also, the Kiuc was 11 µM with Bacteria [9] and 6 µM in data set [15]. This compound came in with an IC50 in [18] of 75 µM.
`N#Cc1c(-c2ccccc2)c(-c2ccccc2)n(Cc2ccccc2)c1/N=C/c1ccc([N+](=O)[O-])cc1`: the results for the inhibition (in data set [1]; in the data set on Bacteria [2]) were 45% and 40%, respectively.
Taken in the same sequence, the figures for `N#Cc1c(-c2ccccc2)c(-c2ccccc2)n(Cc2ccccc2)c1/N=C/c1ccc2ccccc2c1` were 50% and 26%.
For `CC(=O)Nc1ccc(/C=N/c2c(C#N)c(-c3ccccc3)c(-c3ccccc3)n2Cc2ccccc2)cc1`, the inhibition in data set [1] was 14%; in the data set with Bacteria [2], 10%.

These data come from ChEMBL document CHEMBL5365406, “Inhibitors for metallo-β-lactamases from the B1 and B3 subgroups provide an avenue to combat a major mechanism of antibiotic resistance” (Bioorg Med Chem Lett, 2023).
